Source: US12655145B2, “P2X3 modulators” (GlaxoSmithKline Intellectual Property (No. 3) Limited, priority 2020, dated 2026)

Biological target: T1, P2X3 (Homo sapiens, UniProt P56373)
T1 construct: expressed in transfected cells; host or cells: HEK293
T1 sequence (P56373 1-397): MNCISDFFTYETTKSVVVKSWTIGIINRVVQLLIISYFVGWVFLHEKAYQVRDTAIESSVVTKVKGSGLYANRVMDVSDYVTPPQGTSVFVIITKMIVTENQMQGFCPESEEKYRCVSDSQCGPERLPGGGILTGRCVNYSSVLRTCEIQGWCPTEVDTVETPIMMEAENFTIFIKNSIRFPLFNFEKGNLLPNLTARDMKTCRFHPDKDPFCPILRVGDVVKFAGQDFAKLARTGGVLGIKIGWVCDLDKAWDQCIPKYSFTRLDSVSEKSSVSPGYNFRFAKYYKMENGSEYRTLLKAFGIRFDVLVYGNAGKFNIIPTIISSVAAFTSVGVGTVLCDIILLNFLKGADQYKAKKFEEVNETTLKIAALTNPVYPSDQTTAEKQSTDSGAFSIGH
Assay: P2X3 Antagonist Assay (FLIPR calcium, Fluo-8, HEK293 cells transfected with human ion channel cDNAs, αβ-meATP stimulation)
Format: cell-based
Settings: antagonist mode, αβ-meATP 3 μM
Protocol: Example 59: P2X3 Antagonist Assay
HEK293 were transiently or stably transfected with human ion channel cDNAs as indicated in section 1. Stable transfectants were selected by coexpression with the antibiotic-resistance gene(s) incorporated into the expression plasmid(s). Selection pressure was maintained by including selection antibiotics in the culture medium. HEK293 cells were cultured in Dulbecco's Modified Eagle Medium/Nutrient Mixture F-12 (D-MEM/F-12) supplemented with 10% fetal bovine serum, 100 U/mL penicillin G sodium, 100 J·Lg/mL streptomycin sulfate and appropriate selection antibiotics.
The effect of each test article to act as an antagonist was evaluated. Each test article was evaluated at eight (8) concentrations (0.001, 0.003, 0.01, 0.03, 0.1, 0.3, 1 and 3 μM, n=3) with 4 replicates for each concentration. Experiments were performed with the FLIPR calcium sensitive dye kit (Fluo-8 dye, AAT, Bioquest) according to the manufacturer's instructions. • Dye-loading: Growth media will be removed and add 20 μL of Mg^++-free HBPS containing Fluo-8 for 30 min at 37° C. • Preincubation (FLIPR step 1): Adding 5× (5 μL) test, vehicle, or control article solutions in Mg^+-free HBPS to each well for 20 minutes at room temperature, protected from light. • Stimulation (FLIPR step 2): After pre-incubation, cells will be stimulated with 6× (5 μL) αβ-meATP at final concentration of 3 μM prepared in Mg^++-free HBPS. • Non-Specific Calcium Influx (FLIPR step 3): 5 minutes after stimulation solution addition, non-specific calcium influx will be activated by adding 7×(5 μL) ionomycin at a final concentration of 5 μM. Fluorescence will be recorded continuously during FLIPR steps 2 and 3. • Positive Control Antagonist: PPADS (1 mM).
Data acquisition was performed via the FLIPRControl software that is supplied with the FLIPR System (MDS-AT) and data was analyzed using Microsoft Excel2003 (Microsoft Corp., Redmond, WA).

CNC(=O)c1cc(F)c(-c2cc3cc(C)cnc3n2C[C@H]2CN(C(=O)OC)CCO2)c(F)c1 [Compound A25, methyl (S)-2-((2-(2,6-difluoro-4-(methylcarbamoyl)phenyl)-5-methyl-1H-pyrrolo[2,3-b]pyridin-1-yl)methyl)morpholine-4-carboxylate]
IC50: > 1000 nM

CNC(=O)c1cc(F)c(-c2c(C[C@H]3CN(C(=O)OC)CCO3)nc3cc(C)ncn23)c(F)c1 [Compound A37]
IC50: 100 to 1000 nM

CNC(=O)c1cc(F)c(-c2nc3cc(C)ccn3c2C[C@@H]2CCCN(C(=O)OC)C2)c(F)c1 [(S)-A19, methyl (S)-3-((2-(2,6-difluoro-4-(methylcarbamoyl)phenyl)-7-methylimidazo[1,2-a]pyridin-3-yl)methyl)piperidine-1-carboxylate]
IC50: < 100 nM

CNC(=O)c1cc(F)c(-c2[nH]c3cc(C)ccc3c2C[C@H]2CN(C(=O)OC)CCO2)c(F)c1 [Compound A24, methyl (S)-2-((2-(2,6-difluoro-4-(methylcarbamoyl)phenyl)6-methyl-1H-indol-3-yl)methyl)morpholine-4-carboxylate]
inhibition at 1 µM (HEK293, @ 1 μM, read-out: P2X3 IC50 column, given as % @ 1 μM): 10%

CNC(=O)c1ccc(-c2nc3cc([S+](C)[O-])ccn3c2C[C@H]2CN(C(=O)OC)CCO2)c(F)c1 (single isomer, unassigned) [A47 (Peak 2)]
IC50: > 1000 nM

CNC(=O)c1cc(F)c(-c2nc3cc(C(F)F)ccn3c2C[C@H]2CN(C(=O)OC)CCO2)c(F)c1 [Compound A4, methyl (S)-2-((2-(2,6-difluoro-4-(methylcarbamoyl)phenyl)-7-(di-fluoromethyl)imidazo[1,2-a]pyridin-3-yl)methyl)morpholine-4-carboxylate]
IC50: < 100 nM

COC(=O)N1CCO[C@@H](Cc2c(-c3ccc(C(=O)N(C)C)cc3F)nc3cc(Cl)ccn23)C1 [Compound A65, methyl (S)-2-((7-chloro-2-(4-(dimethylcarbamoyl)-2-fluoro-phenyl)imidazo[1,2-a]pyridin-3-yl)methyl)morpholine-4-carboxylate]
IC50: 100 to 1000 nM

CNC(=O)c1cc(F)c(-c2[nH]c3cc(C)cnc3c2C[C@H]2CN(C(=O)OC)CCO2)c(F)c1 [Compound A26, methyl (S)-2-((2-(2,6-difluoro-4-(methylcarbamoyl)phenyl)-6-methyl-1H-pyrrolo[3,2-b]pyridin-3-yl)methyl)morpholine-4-carboxylate]
IC50: > 1000 nM

CNC(=O)c1ccc(-c2nc3cc(C(O)C(F)(F)F)ccn3c2C[C@H]2CN(C(=O)OC)CCO2)c(F)c1 (single isomer, unassigned) [A46 (Peak 2)]
IC50: > 1000 nM

CNC(=O)c1cc(F)c(-c2nc3cc(F)ccn3c2C[C@H]2CN(C(=O)OC)CCO2)c(F)c1 [Compound A1, methyl (S)-2-((2-(2,6-difluoro-4-(methylcarbamoyl)phenyl)-7-fluoroimidazo[1,2-a]pyridin-3-yl)methyl)morpholine-4-carboxylate]
IC50: 100 to 1000 nM

CNC(=O)c1ccc(-c2nc3cc(Cl)ccn3c2C[C@H]2CN(C(=O)OC)CCO2)c(Cl)c1 [Compound A9, methyl (S)-2-((2-(2-chloro-4-(methylcarbamoyl)phenyl)-7-chloro-imidazo[1,2-a]pyridin-3-yl)methyl)morpholine-4-carboxylate]
IC50: < 100 nM

CNC(=O)c1ccc(-c2nc3cc(CF)ccn3c2C[C@H]2CN(C(=O)OC)CCO2)c(F)c1 [Compound A49, methyl (S)-2-((2-(2-fluoro-4-(methylcarbamoyl)phenyl)-7-(fluoromethyl)imidazo[1,2-a]pyridin-3-yl)methyl)morpholine-4-carboxylate]
IC50: 100 to 1000 nM

CNC(=O)c1cc(F)c(-c2nc3cc(C)ccn3c2C[C@H]2CN(C(=O)OC)CCO2)c(F)c1F [Compound A6, methyl (S)-2-((7-methyl-2-(2,3,6-trifluoro-4-(methylcarbamoyl)-phenyl)imidazo[1,2-a]pyridin-3-yl)methyl)morpholine-4-carboxylate]
IC50: < 100 nM
